From ChEMBL document CHEMBL1131870, “The inhibition of human cytomegalovirus (hCMV) protease by hydroxylamine derivatives” (Bioorg Med Chem Lett, 1999)

Target: T1, Capsid scaffolding protein (Human cytomegalovirus (strain AD169) (HHV-5) (Human herpesvirus 5), UniProt P16753)
T1 sequence (P16753 whole entry): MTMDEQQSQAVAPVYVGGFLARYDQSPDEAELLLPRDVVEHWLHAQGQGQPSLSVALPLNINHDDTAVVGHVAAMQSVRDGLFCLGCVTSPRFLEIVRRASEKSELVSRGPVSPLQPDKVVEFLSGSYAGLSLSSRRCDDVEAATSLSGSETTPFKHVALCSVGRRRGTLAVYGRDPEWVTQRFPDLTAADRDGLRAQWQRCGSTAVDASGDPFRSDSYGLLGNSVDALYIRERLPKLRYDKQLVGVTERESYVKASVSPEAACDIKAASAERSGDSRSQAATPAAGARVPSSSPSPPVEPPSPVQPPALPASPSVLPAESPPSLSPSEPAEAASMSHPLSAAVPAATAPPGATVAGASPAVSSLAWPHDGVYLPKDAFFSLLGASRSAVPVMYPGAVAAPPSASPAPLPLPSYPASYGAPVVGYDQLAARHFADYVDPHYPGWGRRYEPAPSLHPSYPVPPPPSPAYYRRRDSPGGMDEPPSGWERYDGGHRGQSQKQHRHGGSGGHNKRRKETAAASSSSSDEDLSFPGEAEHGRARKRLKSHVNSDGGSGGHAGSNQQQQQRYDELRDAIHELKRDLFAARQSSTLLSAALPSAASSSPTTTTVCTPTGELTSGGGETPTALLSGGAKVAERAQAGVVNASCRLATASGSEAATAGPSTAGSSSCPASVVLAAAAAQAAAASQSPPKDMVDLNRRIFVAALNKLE
Test: Inhibitory activity against Human Cytomegalovirus (hCMV) protease
Set-up: species or system Human betaherpesvirus 5

**Q.** For `CC(=O)c1cccc(NO)c1`, which IC50 is on record?
**A.** Its IC50 is 11 µM.

**Q.** Which IC50 does the source give for `Cc1csc2nc(Cc3ccc(C(=O)c4cccc(CO)c4)cc3)oc(=O)c12` here?
**A.** The IC50 was 1.1 µM.

**Q.** How did the IC50 turn out when `CC(=O)ON(C(C)=O)c1cccc(C(=O)c2ccc(Cc3nc4scc(C)c4c(=O)o3)cc2)c1` was run?
**A.** Its IC50 is 1.4 µM.

**Q.** With `Cc1csc2nc(Cc3ccc(C(=O)c4cccc(N=O)c4)cc3)oc(=O)c12` as the compound, how does the IC50 read?
**A.** Its IC50 is 0.055 µM.

**Q.** `Cc1csc2nc(Cc3cccc(NC(=O)c4ccccc4)c3)oc(=O)c12` was tested. Which IC50 did it give?
**A.** The IC50 was 1.5 µM.

**Q.** `CONc1cccc(C(=O)Nc2cccc(Cc3nc4scc(C)c4c(=O)o3)c2)c1` was tested. Which IC50 did it give?
**A.** Its IC50 is 2.2 µM.

**Q.** Which IC50 does the source give for `CC(=O)N(O)c1cccc(C(=O)c2ccc(Cc3nc4scc(C)c4c(=O)o3)cc2)c1` here?
**A.** The IC50 was 1.1 µM.

**Q.** With `Cc1csc2nc(Cc3cccc(NC(=O)c4cccc(NO)c4)c3)oc(=O)c12` as the compound, how does the IC50 read?
**A.** The IC50 was 0.045 µM.

**Q.** Which IC50 does the source give for `ONc1ccccc1` here?
**A.** The IC50 was 9 µM.

**Q.** `Cc1csc2nc(Cc3ccc(C(=O)c4cccc(NO)c4)cc3)oc(=O)c12` was tested. Which IC50 did it give?
**A.** The IC50 was 0.019 µM.

**Q.** With `Cc1csc2nc(Cc3ccc(C(=O)c4cccc(/N=[N+](\[O-])c5cccc(C(=O)c6ccc(Cc7nc8scc(C)c8c(=O)o7)cc6)c5)c4)cc3)oc(=O)c12` as the compound, how does the IC50 read?
**A.** The IC50 was greater than 33 µM.

**Q.** For `Cc1csc2nc(Cc3ccc(C(=O)c4cccc([N+](=O)[O-])c4)cc3)oc(=O)c12`, which IC50 is on record?
**A.** Its IC50 is 3.5 µM.

**Q.** With `Cc1csc2nc(Cc3cccc(NC(=O)c4ccc(NO)cc4)c3)oc(=O)c12` as the compound, how does the IC50 read?
**A.** The IC50 was 0.061 µM.

**Q.** For `Cc1csc2nc(Cc3ccc(C(=O)c4ccccc4)cc3)oc(=O)c12`, which IC50 is on record?
**A.** The IC50 was 0.8 µM.

**Q.** `Cc1csc2nc(Cc3ccc(C(=O)c4cccc(NO)c4)cc3)[nH]c(=O)c12` was tested. Which IC50 did it give?
**A.** Its IC50 is 2 µM.

**Q.** `NO` [HYDROXYLAMMONIUM CHLORIDE] was tested. Which IC50 did it give?
**A.** The IC50 was greater than 33 µM.

**Q.** For `Cc1csc2nc(Cc3ccc(C(=O)c4cccc(N)c4)cc3)oc(=O)c12`, which IC50 is on record?
**A.** Its IC50 is 1 µM.

**Q.** How did the IC50 turn out when `Cc1csc2nc(Cc3ccc(C(=O)c4ccc(NO)cc4)cc3)oc(=O)c12` was run?
**A.** The IC50 was 0.014 µM.

**Q.** For `Cc1ccc(C(=O)c2cccc(NO)c2)cc1`, which IC50 is on record?
**A.** Its IC50 is 3.7 µM.

**Q.** `Cc1csc2nc(Cc3cccc(NC(=O)c4cccc(NN)c4)c3)oc(=O)c12` was tested. Which IC50 did it give?
**A.** The IC50 was 3.8 µM.

**Q.** How did the IC50 turn out when `Cc1csc2nc(Cc3ccc(C(=O)c4ccc(CO)cc4)cc3)oc(=O)c12` was run?
**A.** The IC50 was 0.94 µM.

**Q.** With `Cc1csc2nc(Cc3ccc(C(=O)c4ccccc4)cc3)[nH]c(=O)c12` as the compound, how does the IC50 read?
**A.** Its IC50 is greater than 33 µM.

**Q.** How did the IC50 turn out when `Cc1csc2nc(Cc3cccc(NC(=O)c4ccc(NN)cc4)c3)oc(=O)c12` was run?
**A.** The IC50 was 2.4 µM.
